Here are results for four compounds from PMC7756341, “Liposomal FRET Assay Identifies Potent Drug‐Like Inhibitors of the Ceramide Transport Protein (CERT)” (Chemistry (Weinheim an Der Bergstrasse, Germany), 2020).

For the assay, the target named is T1, CERT (Homo sapiens, UniProt Q9Y5P4).
T1 construct: made in house; host or cells: E. coli BL21 (DE3), pET-28a(+)
T1 sequence (Q9Y5P4 1-598 isoform Q9Y5P4-2): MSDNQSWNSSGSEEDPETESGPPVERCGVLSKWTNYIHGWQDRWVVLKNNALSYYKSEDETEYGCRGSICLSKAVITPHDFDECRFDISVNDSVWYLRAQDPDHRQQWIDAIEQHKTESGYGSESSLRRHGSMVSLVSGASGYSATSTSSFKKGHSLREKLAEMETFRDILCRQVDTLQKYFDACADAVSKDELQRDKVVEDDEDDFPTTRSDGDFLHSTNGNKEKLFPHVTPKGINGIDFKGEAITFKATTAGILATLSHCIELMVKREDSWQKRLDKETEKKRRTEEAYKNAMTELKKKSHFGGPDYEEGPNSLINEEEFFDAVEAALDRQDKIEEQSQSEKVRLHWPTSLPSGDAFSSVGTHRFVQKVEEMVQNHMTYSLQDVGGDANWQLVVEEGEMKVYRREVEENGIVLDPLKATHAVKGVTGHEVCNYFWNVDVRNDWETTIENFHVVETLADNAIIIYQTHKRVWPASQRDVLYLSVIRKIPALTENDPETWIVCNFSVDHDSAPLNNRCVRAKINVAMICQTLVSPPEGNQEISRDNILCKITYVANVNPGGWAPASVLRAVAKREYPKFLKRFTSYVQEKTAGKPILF
Kind of assay: Liposomal FRET CERT transfer assay (NBD-Cer/NR-Cer), 96-well. The assay is classed as biochemical. As to conditions: dose-response. An excerpt:
2. Assessment of CERT-transfer Activity
2.1 Reagents and materials
Egg phosphatidylcholine (PC) and egg phosphatidylethanolamine (PE) were purchased from Sigma. Fluorescence (nitrobenzoxadiazole (NBD), 7-Methoxycumarin-3-carboxylat (MCC), 9-Diethylamino-5-oxo-5H-benzo[a]phenoxazin-2-yl (NR)) labeled-ceramide, were chemically synthesized (section 5). (1R,3S) and (1R, 3R) -N-(3Hydroxy-1-hydroxymethyl-3-phenylpropyl)- dodecamide (HPA-12) were synthesized as previously described.
Two donor and acceptor liposomes were prepared one acts as donor liposome (NBD-Cer or MCC-Cer) and the other as acceptor liposome (NR-Cer or NBD-Cer). The donor and acceptor liposomes were mixed in proper percentage for establishing two fluorescence resonance energy transfer (FRET) systems (MCC/NBD-ceramide system, or NBD/ NR-ceramide system). The stock solutions of the phospholipids and the fluorescently-labeled ceramide were prepared by dissolving in a mixture of methanol:chloroform (1:1). The liposomes were prepared by mixing […] phosphatidylcholine, 333 µmol phosphatidylethanolamine, and […] fluorescently-labeled ceramide (4:1:1 molar ratio) in siliconized Eppendorf tubes. The mixture was dried under argon stream to yield a waxy lipid film. The obtained waxy residue was hydrated with Tris.HCl buffer (1mL, 2 mM, pH 7.4) to a final concentration of 2 mM and the resulting mixture was vortexed for 1 min. The lipid mixture was subjected to 6 freeze-thawing cycles with liquid nitrogen and shaking incubator at 37 °C. Afterwards, the lipid suspension was sonicated with a Cup-Horn sonicator for 20 sec, followed by vigorous shaking on vortex for 1 min. Finally, the lipid mixture was extruded with a mini extruder (Avanti polar lipids) by forcing the suspension through two polycarbonate filters with 100 nm pore size for 13 times to afford a solution of liposome type.
2.4 Development of high throughput screening CERT-assay (96-well plate format) The assay was performed in non-binding clear-bottom 96-well microplate (Greiner Bio-One). […] The plate was placed in the microplate reader (LABTECH) at 30°C with shaking. The fluorescence was measured from the bottom over 1h (number of cycles 35, delay 70 sec) with excitation filter 485 nm and emission filter 640 nm (for NBD-Cer/NR-ceramide FRET system) or excitation filter 347 nm and emission filter 536 nm (for Coumarin (MMC-Cer), NBD-ceramide (NBD-Cer) FRET system). The transfer efficiency was calculated using the formula: Ix = I0(À1-X)/I(À2-Y), where À1 is the average of the florescence of the control of liposome mixture in Tris.HCl buffer, X is the average of the fluorescence of the buffer alone, À2 is the fluorescence average of the assay mixture, Y is the fluorescence average of the CERT aliquot with […]

For the compound `O=C(NC1CCN(CCCCC2(C(=O)NCC(F)(F)F)c3ccccc3-c3ccccc32)CC1)c1ccccc1-c1ccc(C(F)(F)F)cc1` [8E8, lomitapide], the “activity in the transfer assay” value is “high activity”.
As to `CCCC(=O)OCOC(=O)C1=C(C)NC(C)=C(C(=O)OC)C1c1cccc(Cl)c1Cl` (stereo not shown) [6B11, Clevidipine butyrate], the “activity in the transfer assay” value is listed as “high activity”.
Regarding `Cc1cc(C2=NOC(c3cc(Cl)cc(Cl)c3)(C(F)(F)F)C2)ccc1C(=O)NCC(=O)NCC(F)(F)F` (stereo not shown) [20D5, Fluralaner], the “activity in the transfer assay” value is recorded as “high activity”.
Next, `CC1=NN(c2ccc(C)c(C)c2)C(=O)/C1=N\Nc1cccc(-c2cccc(C(=O)O)c2)c1O` [17C9, Eltrombopag]: “weak dose‐response”.
